Experimental data from the supplement of paper PMC8967900.

Assays:
Test in all cases: selective drug sensitivity score (sDSS, relative to normal bone marrow) (sDSS (score)); higher = more potent and effective on the cell line relative to normal bone marrow cells
Settings in all cases: 72 h
HPB-ALL = tested on: HPB-ALL
HAL-01 = tested on: HAL-01
P12-ICHIKAWA = tested on: P12-ICHIKAWA
KOPN-8 = tested on: KOPN-8
COG-LL-332h = tested on: COG-LL-332h
MOLT-16 = tested on: MOLT-16
COG-LL-394h = tested on: COG-LL-394h
MOLT-14 = tested on: MOLT-14
CCRF-HSB2 = tested on: CCRF-HSB2
RCH-ACV = tested on: RCH-ACV
JURKAT = tested on: JURKAT
MN-60 = tested on: MN-60
ALL-PO = tested on: ALL-PO
COG-LL-317 = tested on: COG-LL-317
KASUMI-9 = tested on: KASUMI-9
MHH-CALL-3 = tested on: MHH-CALL-3
REH = tested on: REH
380 = tested on: 380
COG-LL-402h = tested on: COG-LL-402h
DND-41 = tested on: DND-41
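Note: ALL cell lines in 384-well plates, five doses spanning 10,000-fold, each plate scaled between vehicle and 100 µmol/L benzalkonium chloride controls, sDSS an adapted area-under-curve metric.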

Structure (SMILES) | selective drug sensitivity score (HPB-ALL) | selective drug sensitivity score (HAL-01) | selective drug sensitivity score (P12-ICHIKAWA) | selective drug sensitivity score (KOPN-8) | selective drug sensitivity score (COG-LL-332h) | selective drug sensitivity score (MOLT-16) | selective drug sensitivity score (COG-LL-394h) | selective drug sensitivity score (MOLT-14) | selective drug sensitivity score (CCRF-HSB2) | selective drug sensitivity score (RCH-ACV) | selective drug sensitivity score (JURKAT) | selective drug sensitivity score (MN-60) | selective drug sensitivity score (ALL-PO) | selective drug sensitivity score (COG-LL-317) | selective drug sensitivity score (KASUMI-9) | selective drug sensitivity score (MHH-CALL-3) | selective drug sensitivity score (REH) | selective drug sensitivity score 380 | selective drug sensitivity score (COG-LL-402h) | selective drug sensitivity score (DND-41)
O=c1[nH]c(C2CCCN2)nc2c1oc1ccc(Cl)cc12 (stereo not given) (top concentration 10000 nM) | -2.4 | 0.2 | 0.1 | 8.1 | 6.7 | -0.5 | 0.5 | 6.4 | 3.7 | 5.1 | -2.8 | -2.7 | -0.2 | 3.3 | -1 | -0.7 | 0.3 | 13.1 | -1.5 | -1.1
NS(=O)(=O)OC[C@@H]1C[C@@H](n2ccc3c(N[C@H]4CCc5ccccc54)ncnc32)C[C@@H]1O [Pevonedistat] (top concentration 10000 nM) | 5.7 | -3.5 | 16.7 | 13 | 20.2 | 16.7 | 2.7 | 13.2 | 16.3 | 12.3 | 12.6 | 6.5 | 12.7 | 15.7 | 6.2 | 7.4 | 10.3 | 8.5 | 8.5 | 10.1
CN1CC[C@H](c2c(O)cc(O)c3c(=O)cc(-c4ccccc4Cl)oc23)[C@H](O)C1 [Alvocidib] (top concentration 10000 nM) | -3.1 | -3.5 | -2.1 | -1.2 | -0.3 | 0.7 | -2.5 | 1.3 | 2.2 | 2.7 | -2.6 | -3.9 | -6.7 | 1.7 | -0.7 | -3.6 | -2 | -4.3 | -2.1 | -4.1
COc1cccc2c1C(=O)c1c(O)c3c(c(O)c1C2=O)C[C@@](O)(C(=O)CO)C[C@@H]3O[C@H]1C[C@H](N)[C@H](O)[C@H](C)O1 [Doxorubicin] (top concentration 1000 nM) | -0.42 | 1.38 | 5.08 | 13.3 | 11.3 | 16.1 | 7.18 | 13.8 | 14.4 | 10.6 | 2.78 | -2.12 | -0.12 | 15 | 7.48 | 14.8 | 9.28 | 11.9 | 13.1 | 1.58
C[C@]1(c2nc3c(C(N)=O)cccc3[nH]2)CCCN1 [Veliparib] (top concentration 10000 nM) | -0.28 | 1.02 | -4.18 | 5.52 | -1.48 | 0.32 | -4.18 | 0.22 | -2.18 | -2.58 | -3.28 | -3.38 | -1.78 | 1.72 | 1.72 | 0.42 | -4.18 | -2.78 | -3.48 | -4.18
CC1(C)OCCn2c1nc1c(N3CCOCC3)nc(-c3cnc(N)nc3)nc12 [GDC-0084] (top concentration 10000 nM) | 3.2 | 11 | 4.1 | 13.2 | 3.7 | 6.8 | -0.3 | 1.3 | 6.1 | 20.8 | 2.9 | 5.2 | 11.8 | 3.1 | 9.5 | 7 | 8.8 | 15 | 7.5 | 1.8
Nc1cccc2c1CN(C1CCC(=O)NC1=O)C2=O (stereo not given) [Lenalidomide] (top concentration 100000 nM) | -2.28 | 4.22 | -2.28 | 1.02 | 0.22 | -0.88 | -2.28 | 0.12 | 0.22 | 4.42 | -2.28 | -2.28 | -2.28 | 2.92 | 7.42 | -2.28 | -2.28 | 1.62 | -2.28 | 2.12
Cn1c(Nc2ccc(C(F)(F)F)cc2)nc2cc(Oc3ccnc(-c4ncc(C(F)(F)F)[nH]4)c3)ccc21 [NVP-RAF265] (top concentration 1000 nM) | 0.08 | 5.68 | 2.58 | 4.18 | 3.28 | 8.68 | 5.98 | 6.38 | 5.98 | 6.68 | 2.88 | -0.22 | 6.68 | 7.28 | 4.48 | 7.68 | 2.18 | 2.68 | 5.98 | 3.58
CN1CCc2c(c3ccccc3n2Cc2ccc(C(=O)NO)cc2)C1 [Tubastatin_A] (top concentration 10000 nM) | 6.76 | 1.76 | 0.36 | 9.86 | 1.46 | 2.86 | -0.14 | 1.06 | 2.06 | 8.16 | 0.36 | 2.16 | 3.06 | 1.96 | 8.86 | 18 | 5.86 | 11.7 | 7.46 | 2.66
CCc1cnn2c(NCc3ccc[n+]([O-])c3)cc(N3CCCC[C@H]3CCO)nc12 [Dinaciclib] (top concentration 1000 nM) | -4.34 | -5.74 | -6.44 | -6.34 | -1.54 | -2.24 | -1.74 | -3.24 | -2.74 | -0.64 | -5.64 | -7.74 | -6.64 | 1.26 | 1.26 | 1.76 | -5.84 | -5.34 | 2.86 | -0.14
CCN1C(=O)CNc2ncc(-c3ccc(-c4nc[nH]n4)nc3C)nc21 [CC-115] (top concentration 10000 nM) | 1.84 | 2.54 | 1.04 | 17.5 | 2.54 | 4.74 | -2.06 | 1.24 | 2.64 | 17.5 | 1.24 | 1.54 | 4.34 | 0.54 | 4.54 | 1.34 | 0.44 | 10.6 | 3.44 | 6.74
Sc1ncnc2nc[nH]c12 [Mercaptopurine] (top concentration 10000 nM) | 14.9 | 12.4 | 9.6 | 14.9 | 15.5 | 16.9 | 0.5 | 10.9 | 12.6 | 14.2 | 10.3 | 6.6 | 14.9 | 23.7 | 15.4 | 0 | 17 | 7.4 | 6.6 | 11.1
CN(C)CCOc1ccc(/C(=C(/CCCl)c2ccccc2)c2ccccc2)cc1 [Toremifene] (top concentration 10000 nM) | -1.72 | 3.18 | -1.12 | 0.98 | 0.98 | 3.38 | 0.58 | 2.48 | 1.48 | 6.88 | -0.42 | 0.78 | 3.18 | -0.22 | 0.58 | -2.52 | -1.52 | 1.58 | -2.72 | 6.78
COc1cc(Nc2ncc(F)c(Nc3ccc4c(n3)N(COP(=O)(O)O)C(=O)C(C)(C)O4)n2)cc(OC)c1OC [Fostamatinib] (top concentration 2500 nM) | -1.94 | 0.76 | -2.84 | 4.66 | -0.44 | -2.84 | -1.54 | -0.34 | 4.46 | 7.96 | -2.14 | -1.34 | 8.06 | -2.84 | 1.76 | -1.44 | -1.84 | -2.84 | 3.46 | -0.64
CC[C@H](Nc1ncnc2[nH]cnc12)c1nc2cccc(F)c2c(=O)n1-c1ccccc1 [Idelalisib] (top concentration 10000 nM) | -2.16 | 16.1 | -1.26 | 5.64 | 0.04 | 1.24 | -2.16 | -2.16 | 1.24 | 23.8 | -1.76 | -2.16 | -1.06 | 0.04 | 7.54 | 9.44 | 2.74 | 5.74 | 5.34 | -1.16
CC1CCC(n2c3cnccc3c3cnc(Nc4ccc5c(n4)CCN(C(=O)CO)C5)nc32)CC1 (stereo not given) [AMG-925] (top concentration 1000 nM) | 5.84 | 3.44 | 3.84 | 10.9 | 4.34 | 10.5 | -0.66 | 6.14 | 1.94 | 14.7 | 4.54 | -0.66 | 11.4 | 1.44 | 8.24 | 4.94 | 3.44 | 2.44 | 6.14 | 6.14
Cc1ccc(C(=O)N(CCCN)[C@@H](c2oc3cc(Cl)ccc3c(=O)c2Cc2ccccc2)C(C)C)cc1 (top concentration 100 nM) | 13.8 | 3.66 | 1.76 | 3.46 | 6.96 | 7.46 | -2.24 | 3.76 | 9.56 | 1.96 | 2.96 | -1.84 | -0.24 | 1.16 | 4.16 | -2.44 | 4.26 | 1.46 | 3.06 | -0.64
Nc1ncn([C@@H]2O[C@H](CO)[C@@H](O)[C@H]2O)c(=O)n1 [Azacitidine] (top concentration 10000 nM) | 7.94 | 3.84 | 3.74 | 8.74 | 3.64 | 7.14 | -2.26 | 9.04 | -0.56 | 5.24 | 4.04 | 0.84 | 6.94 | 7.74 | 5.14 | 4.24 | 9.44 | 5.44 | 1.74 | 2.14
C=CC(=O)N1CCC[C@@H](n2nc(-c3ccc(Oc4ccccc4)cc3)c3c(N)ncnc32)C1 [Ibrutinib] (top concentration 1000 nM) | 1.5 | 1.9 | 0 | 2.7 | 2.4 | 2 | 0 | 2.6 | 7 | 15 | 0 | 0 | 1.8 | 0 | 1.3 | 0 | 0 | 0.9 | 9.1 | 0
